Data: patent US20070197452A1, “Treatment of amyloid-related diseases” (priority 2006, published 2007)
Entries after “also recorded” stand apart in the source; their conditions may differ.

What was measured:
TgCRND8 mice [1] = assay: Open field test for motor activity; type: in vivo, mouse; conditions: treated TgCRND8 mice vs untreated TgCRND8 and non-Tg littermates
Experimental: (§1) Behavioural tests: Morris Water Maze testing was performed as previously described. After non-spatial pre-training, mice underwent place discrimination training for 5 days with 4-trials per day, followed by a cued visible platform to rule out general motivational, learning deficits and motor problems, and a probe trial to evaluate memory. […] Open field test for motor activity was preformed as described previously. Duration of walking, pausing and grooming were analyzed as indices of spontaneous locomotor activity. Sensorimotor function was examined with an Economex™ accelerating rotarod (Columbus Instruments, Columbus, Ohio), as described elsewhere. The rod was set to accelerate at a rate of 0.2 r.p.m./s, from an initial, constant speed of 5 r.p.m. Latency to fall was recorded in four daily trials, conducted at 30 min intervals. All mice were trained for seven days before testing. The test day performance score for each animal was obtained by summing its latency to fall over the four trials
Behavioral tests. Morris water maze testing was carried out as previously described. After nonspatial pretraining, mice underwent place discrimination training for 5 d with four trials per day, followed by a cued visible platform trial and a probe trial. An open-field test for motor activity was carried out as described previously. Sensorimotor function was assessed with an Economex accelerating rotarod (Columbus Instruments) as previously described.
Behavioural tests. Morris Water Maze testing was performed as previously described. After non-spatial pre-training, mice underwent place discrimination training for 5 days with 4-trials per day, followed by a cued visible platform to rule out general motivational, learning deficits and motor problems, and a probe trial to evaluate memory. The probe trial was conducted at 72 h after the last testing, and used an annulus-crossing index to assess spatial recall. […]
(§2) Duration of walking, pausing and grooming were analyzed as indices of spontaneous locomotor activity. […] Latency to fall was recorded in four daily trials, conducted at 30 min intervals. […]

TgCRND8 mice [2] = assay: Accelerating rotarod, sensorimotor function; type: in vivo, mouse; conditions: treated vs untreated TgCRND8 mice and non-Tg littermates
Experimental: as §1
Behavioral tests. Morris water maze testing was carried out as previously described. […] Sensorimotor function was assessed with an Economex accelerating rotarod (Columbus Instruments) as previously described.
as §2

β-secretase = biological target: T1, β-secretase (Homo sapiens, UniProt P56817); assay: In vitro β-secretase activity assay; type: cell-based
T1 construct: endogenous in cells

TgCRND8 mice [3] = assay: Morris water maze spatial reference memory test; type: in vivo, mouse; conditions: separate cohort; 28 days of treatment from 5 months of age; data not shown

T1 sequence (P56817 46-501): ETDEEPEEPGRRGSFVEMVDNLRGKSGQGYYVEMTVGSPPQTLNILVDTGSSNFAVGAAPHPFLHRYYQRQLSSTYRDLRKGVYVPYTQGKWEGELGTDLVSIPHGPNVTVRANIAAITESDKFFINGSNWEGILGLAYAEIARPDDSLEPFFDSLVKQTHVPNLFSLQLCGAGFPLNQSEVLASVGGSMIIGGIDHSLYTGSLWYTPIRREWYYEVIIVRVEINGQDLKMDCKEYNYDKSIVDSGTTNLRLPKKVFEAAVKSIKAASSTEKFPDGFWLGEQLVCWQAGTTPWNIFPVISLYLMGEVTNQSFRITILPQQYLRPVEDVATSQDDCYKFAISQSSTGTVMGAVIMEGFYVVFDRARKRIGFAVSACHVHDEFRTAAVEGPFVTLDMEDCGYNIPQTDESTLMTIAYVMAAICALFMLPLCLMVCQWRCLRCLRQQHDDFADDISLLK

OC1C(O)C(O)C(O)C(O)C1O (stereo not drawn) [scyllo-cyclohexanehexol, 1,3,5/2,4,6-(scyllo-) cyclohexanehexol]
open field: grooming, pausing, walking / activity levels (TgCRND8 mice [1]): indistinguishable; also recorded: does not affect activity levels | open field: grooming, pausing, walking / activity levels (TgCRND8 mice [1]; listed as AZD-103): does not affect activity levels | open field: grooming, pausing, walking / activity levels (TgCRND8 mice [1]; listed as Scyllo-cyclohexanehexol): no effect on grooming or activity | rotarod sensorimotor function (TgCRND8 mice [2]): no difference; also recorded: indistinguishable | β-secretase enzyme activity (β-secretase): no effect | probe trial, % time in target quadrant, compared with non-Tg littermates (TgCRND8 mice [3]): not statistically different from non-Tg littermates
